Data taken from patent publication US20200113982A1, “Composition and Uses Thereof” (Arborvitae Health and Wellbeing Pty. Ltd., priority 2015, published 2020).

Test: Case Study 5: Patient A, high cholesterol, blood tests
Assay type: in vivo, human
Settings: patient-reported, earlier statin use
Method: Patient A is a person who has had high cholesterol for approximately 20 years, and who is reasonably fit and is not overweight.
Patient A has been taking 100 mL of the composition of Example 1 each day for a period of 3 weeks. The results of a blood test on 14 Jan. 2015 (prior to taking the composition of Example 1) and a blood test on 24 Jun. 2015 (after taking the composition of Example 1 for 3 weeks) gave the results in Table 6: […]

Compound: CC(C)c1c(C(=O)Nc2ccccc2)c(-c2ccccc2)c(-c2ccc(F)cc2)n1CC[C@@H](O)C[C@@H](O)CC(=O)O [Lipitor]
- side effects: muscle aches and pain, tiredness, joint pain and a general feeling of not being well
